Results from article PMC9032516, “Targeting Zika Virus with New Brain- and Placenta-Crossing Peptide–Porphyrin Conjugates” (Pharmaceutics, 2022).
Counter-ions that a name gives are not always drawn. Like-named read-outs stand apart in the source and are kept apart here. No end group written: not given here.

Columns and labels:
ZIKV^BR = experiment: ZIKV inactivation assay (plaque assay on Vero cells); assay type: cell-based, Zika virus; details: 10^5 PFU ZIKV^BR pre-treated 1 h at 37 °C in the dark with 0.01–50 µM, titrated by plaque assay on Vero cells, three independent replicates
Method: After infection, cells were cultured for 7 days.
Three independent replicates were performed.

HIV = system: HIV; design: method as in 2 sources, one per row (each row's own in cited_ref): ref [24] as printed in Table 2, ref [2] in supplement ||| ref 23 = [23]; PMID 34033716; doi:10.1021/acs.bioconjchem.1c00123; 23. Mendonça D.A. Bakker M. Cruz-Oliveira C. Neves V. Jiménez M.A. Defaus S. Cavaco M. Veiga A.S. Cadima-Couto I. Castanho M.A.R.B. Penetrating the Blood-Brain Barrier with New Peptide–Porphyrin Conju; details: in vitro; values marked a; ref [24] as printed in Table 2, ref [2] in supplement; cited from earlier work
Serum stability = assay type: in vitro ADME; details: human serum diluted 1:1 (v/v) with HEPES buffer, 0.05 mM in 1:1 human serum / HEPES buffer (10 mM, NaCl 150 mM, pH 7.8), 37 °C, methanol precipitation, three independent replicates, read-out: t1/2 in human serum (converted)
Method: Next, 600 µL of conjugate/peptide solution were mixed (1:1 v/v) with 600 µL of human serum, to a 0.05 mM final concentration. The mixture was incubated at 37 °C and, at various time points, 50 µL (in triplicate) were taken and precipitated with 200 µL cold methanol. The samples were centrifuged at 13,000 rpm, 10 min, +4 °C. Afterwards, 50 µL of each supernatant were injected on an LC-20AD instrument (Shimadzu) equipped with a Luna C18 column (4.6 mm × 50 mm, 3 µm, Phenomenex, Torrance, CA, USA) and analysed using a 0–95% linear gradient of MeCN into 0.1% TFA in H2O over 15 min with 1 mL/min flow rate. PDA detection at 220 nm and 401 nm was used and the half-life times were calculated by peak area integration at 401 nm, the λmax of MP and PP. Controls included blank serum (25 µL each of 1:1 v/v serum + HEPES buffer, then precipitation with 200 µL cold methanol), untreated conjugate/peptide (25 µL of 0.1 mM stock in HEPES buffer + 25 µL HEPES buffer, then precipitation with 200 µL cold methanol), and a zero-time sample (200 µL cold methanol + 25 µL serum + 25 µL 0.1 mM conjugate/peptide stock); the conjugate/peptide was added last to avoid any contact with protease. Controls were analysed by LC and LC-MS as above. Three independent replicates were performed.

[1] = system: HBEC-5i human brain endothelia monolayer (in vitro BBB model); experiment: In vitro BBB integrity assay (FD4 permeability after incubation); assay type: cell-based
Method: After 24 h incubation with PPCs, cells were washed with PBS and DMEM:F12 medium without phenol red. […] Three independent replicates were performed.

## CCC1=C(C)c2cc3[nH]c(cc4[nH]c(cc5nc(cc1n2)C(C)=C5CC)c(C)c4CCC(=O)O)c(CCC(=O)O)c3C [MP, Mesoporphyrin IX dihydrochloride]
ZIKV^BR
  IC50: > 50 µM
HIV
  IC50: > 50 µM

## SGTQEEY-NH2 [P5, SGTQEEY-amide]
Serum stability; over 24 h, HPLC peak area (401 nm for porphyrins)
  half-life at 0.05 mM: 2.2 h

## O=C(O)CN(CCOCCOCCN(CC(=O)O)CC(=O)O)CC(=O)O [EGTA]
[1]
  FD4 permeability post-translocation (Basolateral Content), BBB: 29.6%

## C=CC1=C(C)c2cc3[nH]c(cc4nc(cc5[nH]c(cc1n2)c(C)c5CCC(=O)O)C(CCC(=O)O)=C4C)c(C)c3C=C [PP, protoporphyrin IX]
[1]; HBEC-5i monolayer after 24 h incubation with 10 µM compound, 4 kDa FITC-dextran apical, 2 h, fluorescence, three independent replicates, black bars Figure 1B, control (cells only) 10.3%
  FD4 permeability post-translocation (Basolateral Content), BBB: 24.7%
[1]; HBEC-5i monolayer, 24.7% versus control 10.3%
  increase in FD4 permeability over control values, BBB: 2.5 fold
HIV
  IC50: > 50 µM

## VQQLTKRFSL-NH2 [P1]
Serum stability; HPLC
  half-life at 0.05 mM: 0.733 h
